In PMC8718007, “Decreased glutamate transport in acivicin resistant Leishmania tarentolae” (PLoS Neglected Tropical Diseases, 2021):

Target: LtaPh_2202300 (AAT22) (Leishmania tarentolae, UniProt A0A640KGB0)
Assay: time-dependent uptake of 3H-glutamate, null mutant vs control strain
Format: cell-based
Conditions: 0.1 mM glutamate in PBS, room temperature; labelled compound

Sequence of LtaPh_2202300 (AAT22) (A0A640KGB0 entry or part of it): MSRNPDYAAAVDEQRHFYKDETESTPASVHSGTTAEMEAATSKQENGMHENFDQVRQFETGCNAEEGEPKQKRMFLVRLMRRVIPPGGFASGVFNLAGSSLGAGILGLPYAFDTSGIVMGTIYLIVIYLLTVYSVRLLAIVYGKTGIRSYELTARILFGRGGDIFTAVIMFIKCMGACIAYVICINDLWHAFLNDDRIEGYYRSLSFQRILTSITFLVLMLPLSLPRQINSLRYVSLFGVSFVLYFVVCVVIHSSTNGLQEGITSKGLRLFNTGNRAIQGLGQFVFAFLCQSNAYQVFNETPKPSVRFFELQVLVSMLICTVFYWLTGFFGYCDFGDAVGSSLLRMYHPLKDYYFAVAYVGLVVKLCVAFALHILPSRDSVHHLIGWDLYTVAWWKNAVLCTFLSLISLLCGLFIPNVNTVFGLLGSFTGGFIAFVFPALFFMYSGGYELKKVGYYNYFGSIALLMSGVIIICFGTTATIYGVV

SMILES: N[C@@H](CCC(=O)O)C(=O)O [glutamate]
- uptake: The accumulation of glutamate but not glutamine was greatly diminished in that recombinant strain
